# Assay results published in US20100168112A1, “2-Substituted and 4-substituted aryl nitrone compounds” (RENOVIS, INC., priority 2004, published 2010).
# Columns and labels:
# [1] = Microsomal stability in human liver microsomes; type: in vitro ADME; conditions: NADPH, 37° C.
# Procedure: Frozen Sprague-Dawley rat liver microsomes (RLM) were thawed on ice and gently mixed before use. The final reaction mixture consisted of a nitrone compound of this invention (at ˜500 ng/ml), 1 mM NADPH, and 0.5 mg/ml of RLM protein in 0.1 M PBS (pH7.4), with organic solvent concentration not exceeding 1% (v/v). Per set of incubations, a positive control compound was included. The mixture was first pre-incubated 3 to 5 minutes at 37° C. without NADPH, and the reaction was then initialized by the addition of NADPH and incubated at 37° C. for up to 30 minutes. An aliquot of the reaction mixture was sampled at the initiation of the reaction and at designated time after reaction started. The drawn samples were quenched with acetonitrile, diluted with mobile phase to ensure the detection of test article in the linear range, and analyzed by LC/MS/MS. Half-life or percentage of remaining nitrone compound was calculated using standard methods. A similar method, or a slight variation of it, was used to test the stability of nitrones in human liver microsomes (HLM).
# [2] = DPPH free radical-scavenging/antioxidant assay; type: biochemical; conditions: 50 μM DPPH in 80% methanol; 24 h time point; read-out: EC50 (concentration at which a compound reduces by 50% the peak absorbance of DPPH at 520 nm)
# Procedure: Nitrone compounds of the present invention were tested for their free-radical scavenging/antioxidant activity in an in vitro assay that is accepted by those skilled in the art as a model for conditions involving the generation of free radicals. The assay is based on a reaction between a free-radical donor, 2,2-diphenyl-1-picrylhydrazyl (DPPH), and a radical scavenger/antioxidant to be tested for free-radical scavenging activity. Upon donation of the free-radical electron to the purported radical scavenger, the peak visible absorbance of DPPH (515-520 nm) decreases so that optical density readings at this part of the visual spectrum reflect the progression of the following reaction:
# where AH is a hypothetical radical scavenger/antioxidant. The assay is based on a protocol originally detailed in Brand-Williams, W. et al., 1995, Use of a Free Radical Method to Evaluate Antioxidant Activity, Lebensm. Wiss. Technol., 28:25-30, with further modifications described in L. R. Fukumoto and G. Mazza, 2000, Assessing Antioxidant and Prooxidant Activities of Phenolic Compounds, J. Agric. Food Chem., 48:3597-3604.
# The antioxidant assay was performed using Perkin-Elmer 96-well, clear-bottom, black-wall plates (ordered from E & K Scientific Products) and a Tecan Safire absorbance plate reader. The positive controls were Trolox (6-hydroxy-2,5,7,8-tetramethylchromane-2-carboxylic acid, Sigma-Aldrich), BHA (2(3)-tert-butylhydroquinone monomethyl ether, Sigma-Aldrich), PBN (C-(phenyl)-N-(tert-butyl)nitrone, Sigma-Aldrich) and S-PBN (C-(2-sulfophenyl)-N-(tert-butyl)nitrone, sodium salt, prepared according to E. G. Janzen and R. V. Shetty, 1979, Tetrahedron Lett., 35: 3229-32), and the negative control (i.e., vehicle) was DMSO. In brief, 2 μL of 100× DMSO stock of the desired final concentration of each control or nitrone compound to be tested in the same batch was added to a separate well. To each well was then added 198 μL of a freshly made 50 μM DPPH (Sigma-Aldrich) solution in 80% methanol using a multi-channel pipette. The absorbance was immediately read on the plate reader at 520 nm and thereafter read periodically to assess kinetics until all reactions reached completion (i.e., steady state). Since the steady-state point was 24 h, the assay results are shown from the 24 h time point. The absorbance at 520 nm (OD) was plotted versus the concentrations of the controls and nitrone compounds to assess dose-response and interpolate the EC50 values of the controls and test compounds.
# [3] = Pharmacokinetic evaluation following intravenous and oral administration in rats; type: in vivo; conditions: male, Sprague-Dawley; for Cmax / Tmax / bioavailability: 5 mg/kg; for Cmax: rat plasma; for Cmax / Tmax: oral gavage, 2 mg/mL at 2.5 mL/kg; for clearance / Vd / Tmax / bioavailability / half-life: plasma, rat; for clearance / Vd / half-life: 1 mg/kg; for clearance / Vd: intravenous administration, 1 mg/mL at 1.0 mL/kg; for clearance: read-out: CI (clearance) (converted); for Vd: read-out: Vd (volume of distribution); for bioavailability: po 2 mg/mL at 2.5 mL/kg vs iv 1 mg/mL at 1.0 mL/kg, dose-normalized, read-out: F (%) oral bioavailability; for half-life: intravenous, read-out: T1/2 elimination half life (converted)
# Procedure: Male Sprague-Dawley rats were given at least 24 hours acclimation before experiment initiation. During acclimation period, all animals received food and water ad libitum. However, food (not water) was removed from the animal's cages up to 12 hours before initiation of the experiment. During the first 4 hours of experimentation, the animals received only water ad libitum. Two to three animals for iv and three animals for oral administration were tested. For iv formulation nitrone compounds of this invention were dissolved (1 mg/mL) in a mixture of 5% dimethyl acetamide (v/v), 0 to 4% Tween 80 (v/v), 10 to 40% PEG 400 (v/v) and the rest percentage of water (v/v). For oral formulation nitrone compounds of this invention were dissolved (2 mg/mL) in a mixture of 4% of 10% Tween in water and 96% of 0.5% carboxymethyl cellulose (medium viscosity) in water; or 4% of 10% Tween in water, 48% of 0.5% carboxymethyl cellulose (medium viscosity) in water, and 48% of 0.5% Hydroxypropyl Methylcellulose/0.2% Sodium Lauryl Sulfate in water. These formulations were stored at 5° C. until the experiment. Formulations were then stir-mixed at least half an hour before dosing. Exactly 200 μL of each left-over formulation was diluted with CH3CN/H2O for concentration analysis. The animals were weighed before dosing. The body weight was used to calculate the true dose for each animal:
# IV dosing: • Dose volume (mL)=1.0 mL/kg The intravenous dose was administered through the jugular vein catheter or tail vein in less than 1 minute.
# PO dosing: • Dose volume (mL)=2.5 mL/kg The oral dose was administered by oral gavage.
# For IV dosing, blood samples were collected (using a pre-heparinized syringe) via the carotid artery or jugular vein catheter at t=2, 5, 15, 30, 60, 120, 180, 360, and 480 minutes post dosing. For PO dosing, blood samples were collected (using a pre-heparinized syringe) via the carotid artery or jugular vein catheter before dosing and at t=5, 15, 30, 60, 120, 180, 360, and 480 minutes post dosing. For some nitrone compounds a 1440 minutes (24 hours) sample was also taken for both IV and PO administrations. About 250 μL of blood was obtained at each time point from the animals. Equal volumes of 0.9% normal saline were replaced to prevent dehydration. The whole blood samples were maintained on ice until centrifugation. Blood samples were then centrifuged at 14,000 rpm for 10 minutes at 4° C. and the upper plasma layer transferred into a clean vial and stored at −80° C. The resulting plasma samples were then analyzed by mass spectroscopy using standard methods.
# All the samples from above assays were analyzed on a PE-Sciex API 3000 triple quadrupole with a Turbo Ion Spray source. Nitrone compounds of this invention were separated from the matrix via a linear gradient reverse-phase chromatography using a C18 column, such as Thermo BDS Hypersil C18 (100×4.6 mm, 5 micron particle, 120A pore size). The mobile Phases were:
# Nitrone compounds were detected by the mass spectrometer in the positive ion multiple reaction monitoring mode (MRM). For quantitative analysis, a standard curve was prepared by spiking a stock solution of the nitrone compound to the appropriate matrix to achieve a quantitation curve range and analyzed the standards in the same manner as the samples.
# Pharmacokinetic parameters of the aryl nitrone compounds were determined by a noncompartmental analysis using WinNonlin-Pro (Version 4.1, Pharsight Corporation). Average and standard deviation of the parameters were calculated using standard formulas in Microsoft Excel.
smiles,measurement,setting,value
"CNS(=O)(=O)c1ccccc1/C=[N+](\[O-])C(C)(C)C [Compound 47, N-tert-Butyl-C-(2-methylsulfamoyl-phenyl)nitrone]",% of Nitrone Remaining at 30 min (Human),[1],100%
same,EC50,[2],> 1000 µM
"CC(C)(C)NS(=O)(=O)c1ccccc1/C=[N+](\[O-])C(C)(C)C [Compound 48, N-tert-Butyl-C-(2-tert-butylsulfamoyl-phenyl)nitrone]",Cmax,[3],0.862 µg/mL
same,clearance,[3],1.97 L/h/kg
same,Vd,[3],1.39 L/kg
same,Tmax,[3],15 min
same,bioavailability,[3],55.3%
same,half-life,[3],29.4 min
same,% of Nitrone Remaining at 30 min (Human),[1],100%
same,EC50,[2],> 1000 µM
"CC(C)(C)/[N+]([O-])=C/c1ccccc1S(=O)(=O)NCc1ccccc1 [Compound 49, N-tert-Butyl-C-(2-benzylsulfamoyl-phenyl)nitrone]",% of Nitrone Remaining at 30 min (Human),[1],0%
same,EC50,[2],> 1000 µM
"CCN(CC)S(=O)(=O)c1ccc(/C=[N+](\[O-])C(C)(C)C)cc1 [Compound 50, N-tert-Butyl-C-(4-diethylsulfamoylphenyl)nitrone]",% of Nitrone Remaining at 30 min (Human),[1],86%
same,EC50,[2],> 1000 µM
"CCN(CC)S(=O)(=O)c1ccc(/C=[N+](\[O-])C(C)C)cc1 [Compound 51, N-Isopropyl-C-(4-diethylsulfamoylphenyl)nitrone]",% of Nitrone Remaining at 30 min (Human),[1],94%
same,EC50,[2],> 1000 µM
"CCN(CC)S(=O)(=O)c1ccc(/C=[N+](\[O-])C2CCCCC2)cc1 [Compound 52, N-Cyclohexyl-C-(4-diethylsulfamoylphenyl)nitrone]",% of Nitrone Remaining at 30 min (Human),[1],64%
"CCN(CC)S(=O)(=O)c1ccc(/C=[N+](\[O-])Cc2ccccc2)cc1 [Compound 53, N-Benzyl-C-(4-diethylsulfamoylphenyl)nitrone]",% of Nitrone Remaining at 30 min (Human),[1],65%
"CN(c1ccccc1)S(=O)(=O)c1ccc(/C=[N+](\[O-])C(C)(C)C)cc1 [Compound 54, N-tert-Butyl-C44-(methyl-phenyl-sulfamoyl)phenylInitrone]",Cmax,[3],0.18 µg/mL
same,clearance,[3],2.15 L/h/kg
same,Vd,[3],3.21 L/kg
same,Tmax,[3],15 min
same,bioavailability,[3],13.2%
same,half-life,[3],61.8 min
same,% of Nitrone Remaining at 30 min (Human),[1],62%
same,EC50,[2],> 1000 µM
"CC(C)/[N+]([O-])=C/c1ccc(S(=O)(=O)N(C)c2ccccc2)cc1 [Compound 55, N-Isopropyl-C-[4-(methyl-phenyl-sulfamoyl)phenyl]nitrone]",% of Nitrone Remaining at 30 min (Human),[1],82%
"CN(c1ccccc1)S(=O)(=O)c1ccc(/C=[N+](\[O-])C2CCCCC2)cc1 [Compound 56, N-Cyclohexyl-C-[4-(methyl-phenyl-sulfamoyl)phenyl]nitrone]",% of Nitrone Remaining at 30 min (Human),[1],33%
same,EC50,[2],> 1000 µM
"CN(c1ccccc1)S(=O)(=O)c1ccc(/C=[N+](\[O-])Cc2ccccc2)cc1 [Compound 57, N-Benzyl-C-[4-(methyl-phenyl-sulfamoyl)phenyl]nitrone]",% of Nitrone Remaining at 30 min (Human),[1],14%
same,EC50,[2],> 1000 µM
"CC(C)(C)NS(=O)(=O)c1ccc(/C=[N+](\[O-])C(C)(C)C)cc1 [Compound 58, N-tert-Butyl-C[4-(tert-butylsulfamoyl)phenyl]nitrone]",% of Nitrone Remaining at 30 min (Human),[1],100%
same,EC50,[2],> 1000 µM
"CC(C)/[N+]([O-])=C/c1ccc(S(=O)(=O)NC(C)(C)C)cc1 [Compound 59, N-Isopropyl-C-[4-(tert-butylsulfamoyl)phenyl]nitrone]",% of Nitrone Remaining at 30 min (Human),[1],100%
same,EC50,[2],> 1000 µM
"CC(C)(C)NS(=O)(=O)c1ccc(/C=[N+](\[O-])C2CCCCC2)cc1 [Compound 60, N-Cyclohexyl-C-[4-(tert-butylsulfamoyl)phenyl]nitrone]",Cmax,[3],0.00159 µg/mL
same,clearance,[3],3.8 L/h/kg
same,Vd,[3],2.84 L/kg
same,Tmax,[3],8.4 min
same,bioavailability,[3],0.4%
same,half-life,[3],30.6 min
same,% of Nitrone Remaining at 30 min (Human),[1],100%
same,EC50,[2],> 1000 µM
"CC(C)(C)NS(=O)(=O)c1ccc(/C=[N+](\[O-])Cc2ccccc2)cc1 [Compound 61, N-Benzyl-C-[4-(tert-butylsulfamoyl)phenyl]nitrone]",% of Nitrone Remaining at 30 min (Human),[1],95%
same,EC50,[2],> 1000 µM
"CC(C)(C)/[N+]([O-])=C/c1ccc(S(C)(=O)=O)nc1 [Compound 80, N-tert-Butyl-C-(6-methanesulfonyl-pyridine-3-yl)nitrone]",Cmax,[3],3.94 µg/mL
same,clearance,[3],0.21 L/h/kg
same,Vd,[3],0.52 L/kg
same,Tmax,[3],30 min
same,bioavailability,[3],54.7%
same,half-life,[3],103 min
same,% of Nitrone Remaining at 30 min (Human),[1],94.5%
"CS(=O)(=O)c1ccc(/C=[N+](\[O-])Cc2ccccc2)cn1 [Compound 81, N-Benzyl-C-(6-methanesulfonyl-pyridine-3-yl)nitrone]",% of Nitrone Remaining at 30 min (Human),[1],90.5%
